Results from article PMC7558399, “In Vitro Selective Growth-Inhibitory Activities of Phytochemicals, Synthetic Phytochemical Analogs, and Antibiotics against Diarrheagenic/Probiotic Bacteria and Cancer/Normal Intestinal Cells” (Pharmaceuticals, 2020).
In brackets after ≈: the same amount, converted by molar mass. Read-outs that look alike come from different tables or passages of the source.

Assays:
Assay type in all cases: cell-based
[1] = tested on: Salmonella enterica ssp. enterica serovar Enteritidis (ATCC 13076); assay: Broth microdilution MIC, Salmonella Enteritidis; details: Salmonella Enteritidis, growth inhibited by ≥80%, read-out: MIC
[2] = tested on: probiotic bacteria (9 strains); assay: Broth microdilution MIC, probiotic bacteria as a group (mean or range over strains); details: mean of 9 strains; >512 replaced with 1024; read-out: x¯ -PB ± SD: mean MIC for probiotic bacteria
[3] = tested on: Bifidobacterium breve (ATCC 15700); assay: Broth microdilution MIC, B. breve; details: ATCC15700, growth inhibited by ≥80%, read-out: MIC
[4] = tested on: Vibrio parahaemolyticus (ATCC 17802); assay: Broth microdilution MIC, V. parahaemolyticus; details: ATCC17802, growth inhibited by ≥80%, read-out: MIC
[5] = tested on: HT29 (ATCC HTB 38) intestinal cancer cells; assay: MTT cytotoxicity assay, HT29; details: Homo sapiens, HT-29, HT29, MTT, 72 h; for IC50: read-out: IC50 ± SD; for IC80: read-out: IC80 ± SD (80% inhibitory concentration of proliferation)
[6] = tested on: S. enterica ssp. enterica serovar Typhimurium (ATCC 14028); assay: Broth microdilution MIC, Salmonella Typhimurium; details: Salmonella Typhimurium, growth inhibited by ≥80%, read-out: MIC
[7] = tested on: Lactobacillus reuteri (CCM 3625); assay: Broth microdilution MIC, L. reuteri; details: Limosilactobacillus reuteri, CCM3625; Lactobacillus reuteri; growth inhibited by ≥80%; read-out: MIC
[8] = tested on: Clostridium perfringens (DSMZ 11778); assay: microbe, parasite or virus in culture; details: DSMZ11778
[9] = tested on: Shigella flexneri (ATCC 12022); assay: microbe, parasite or virus in culture; details: ATCC12022
[10] = tested on: Caco-2 (ATCC HTB 37) intestinal cancer cells; assay: MTT cytotoxicity assay, Caco-2; details: Homo sapiens, Caco-2, MTT, 72 h; for IC50: read-out: IC50 ± SD; for IC80: read-out: IC80 ± SD (80% inhibitory concentration of proliferation)
[11] = tested on: Listeria monocytogenes (ATCC 7644); assay: Broth microdilution MIC, L. monocytogenes; details: ATCC7644, growth inhibited by ≥80%, read-out: MIC
[12] = tested on: E. coli 0175:H7 (NCTC 12900); assay: microbe, parasite or virus in culture; details: Escherichia coli, NCTC12900
[13] = tested on: Bifidobacterium animalis spp. lactis (DSMZ 10140); assay: Broth microdilution MIC, B. animalis spp. lactis; details: DSMZ10140; Bifidobacterium animalis spp. lactis; growth inhibited by ≥80%; read-out: MIC
[14] = tested on: Bacillus cereus (ATCC 14579); assay: Broth microdilution MIC, B. cereus; details: ATCC14579, growth inhibited by ≥80%, median/mode, read-out: MIC
[15] = tested on: Lactobacillus casei (DSMZ 20011); assay: Broth microdilution MIC, L. casei; details: Lacticaseibacillus casei, DSMZ20011; Lactobacillus casei; growth inhibited by ≥80%; read-out: MIC
[16] = tested on: Yersinia enterocolitica (ATCC 9610); assay: Broth microdilution MIC, Y. enterocolitica; details: ATCC9610, growth inhibited by ≥80%, read-out: MIC
[17] = tested on: intestinal cancer cells (HT29 and Caco-2); assay: MTT cytotoxicity assay, mean for intestinal cancer cells; details: for IC50 / x¯ -CC ± SD: mean IC50 for intestinal cancer cells: mean of HT29 and Caco-2, >512 replaced with 1024; for IC50: read-out: x¯ -CC ± SD: mean IC50 for intestinal cancer cells; for IC80: read-out: x¯ -CC ± SD: mean IC80 for intestinal cancer cells
[18] = tested on: Clostridium difficile (DSMZ 12056); assay: microbe, parasite or virus in culture; details: Clostridioides difficile, DSMZ12056, Clostridium difficile, read-out: MIC
[19] = tested on: Bifidobacterium bifidum (ATCC 29521); assay: Broth microdilution MIC, B. bifidum; details: ATCC29521, growth inhibited by ≥80%, read-out: MIC
[20] = tested on: diarrheagenic bacteria (12 strains); assay: microbe, parasite or virus in culture
[21] = tested on: Lactobacillus rhamnosus (CCM 7091); assay: Broth microdilution MIC, L. rhamnosus; details: Lacticaseibacillus rhamnosus, CCM7091; Lactobacillus rhamnosus; growth inhibited by ≥80%; read-out: MIC
[22] = tested on: Bifidobacterium adolescentis (DSMZ 20087); assay: Broth microdilution MIC, B. adolescentis; details: DSMZ20087, growth inhibited by ≥80%, read-out: MIC
[23] = tested on: Escherichia coli (ATCC 25922); assay: Broth microdilution MIC, E. coli; details: ATCC25922, growth inhibited by ≥80%, read-out: MIC
[24] = tested on: Enterococcus faecalis (ATCC 29212); assay: Broth microdilution MIC, E. faecalis; details: ATCC29212, growth inhibited by ≥80%, read-out: MIC
[25] = tested on: FHs 74 Int (ATCC CCL 241) intestinal normal cells; assay: MTT cytotoxicity assay, FHs 74 Int; details: FHs74Int, 72 h, FHs 74 Int (intestinal normal cells), MTT; for IC50: read-out: IC50 ± SD; for IC80: read-out: IC80 ± SD (80% inhibitory concentration of proliferation)
[26] = tested on: Bifidobacterium longum ssp. longum (DSMZ 20219); assay: Broth microdilution MIC, B. longum ssp. longum; details: DSMZ20219; Bifidobacterium longum ssp. longum; growth inhibited by ≥80%; read-out: MIC
[27] = tested on: Bacteroides fragilis (ATCC 25285); assay: Broth microdilution MIC, B. fragilis; details: ATCC25285, growth inhibited by ≥80%, read-out: MIC
[28] = mean of 12 strains, >512 replaced with 1024, read-out: x¯ -DB ± SD: mean MIC for diarrheagenic bacteria

SMILES | MIC [1] | MIC [2] | MIC [3] | MIC [4] | IC50 [5] | IC80 [5] | MIC [6] | MIC [7] | MIC [8] | MIC [9] | IC50 [10] | IC80 [10] | MIC [11] | MIC [12] | MIC [13] | MIC [14] | MIC [15] | MIC [16] | IC80 [17] | MIC [19] | other results
Oc1c(Cl)cc(Cl)c2cccnc12 [CLX, 5,7-dichloroquinolin-8-ol] | 64 µg/mL (≈ 299 µM) | 245 ± 306 µg/mL (≈ 1150 µM) | 64 µg/mL (≈ 299 µM) | 16 µg/mL (≈ 74.7 µM) | 3.7 ± 0.3 µg/mL (≈ 17.3 µM) | 5 ± 0.7 µg/mL (≈ 23.4 µM) | 16 µg/mL (≈ 74.7 µM) | 128 µg/mL (≈ 598 µM) | 16 µg/mL (≈ 74.7 µM) | 16 µg/mL (≈ 74.7 µM) | 1.3 ± 0.04 µg/mL (≈ 6.07 µM) | 5.9 ± 0.7 µg/mL (≈ 27.6 µM) | 32 µg/mL (≈ 149 µM) | 64 µg/mL (≈ 299 µM) | 512 µg/mL (≈ 2390 µM) | 8 µg/mL (≈ 37.4 µM) | 128 µg/mL (≈ 598 µM) | 16 µg/mL (≈ 74.7 µM) | 5.4 ± 0.5 µg/mL (≈ 25.2 µM) | > 512 µg/mL | IC50 [17]: 2.5 ± 1.2 µg/mL (≈ 11.7 µM); MIC ([18]; growth inhibited by ≥80%): 8 µg/mL (≈ 37.4 µM); MIC [20, 28]: 24 ± 19 µg/mL (≈ 112 µM); MIC [21]: 128 µg/mL (≈ 598 µM); MIC [22]: 128 µg/mL (≈ 598 µM); MIC [23]: 16 µg/mL (≈ 74.7 µM); MIC [24]: 16 µg/mL (≈ 74.7 µM); IC50 [25]: 0.5 ± 0.02 µg/mL (≈ 2.34 µM); IC80 [25]: 2 ± 0.1 µg/mL (≈ 9.34 µM); MIC [26]: 64 µg/mL (≈ 299 µM); MIC [27]: 32 µg/mL (≈ 149 µM)
O=[N+]([O-])c1ccc(O)c2ncccc12 [NXL, 5-nitroquinolin-8-ol] | 16 µg/mL (≈ 84.1 µM) | 20 ± 9 µg/mL (≈ 105 µM) | 32 µg/mL (≈ 168 µM) | 8 µg/mL (≈ 42.1 µM) | 2.6 ± 0.3 µg/mL (≈ 13.7 µM) | 3.7 ± 0.4 µg/mL (≈ 19.5 µM) | 16 µg/mL (≈ 84.1 µM) | 16 µg/mL (≈ 84.1 µM) | 4 µg/mL (≈ 21 µM) | 2 µg/mL (≈ 10.5 µM) | 1.1 ± 0.03 µg/mL (≈ 5.78 µM) | 5 ± 1.5 µg/mL (≈ 26.3 µM) | 16 µg/mL (≈ 84.1 µM) | 32 µg/mL (≈ 168 µM) | 32 µg/mL (≈ 168 µM) | 4 µg/mL (≈ 21 µM) | 32 µg/mL (≈ 168 µM) | 8 µg/mL (≈ 42.1 µM) | 4.4 ± 0.7 µg/mL (≈ 23.1 µM) | 16 µg/mL (≈ 84.1 µM) | IC50 [17]: 1.8 ± 0.8 µg/mL (≈ 9.47 µM); MIC ([18]; […]): 2 µg/mL (≈ 10.5 µM); MIC ([20]; B. cereus, clostridial species, E. coli, and S. flexneri, read-out: MICs): 2 to 4 µg/mL (≈ 10.5 to 21 µM); MIC [20, 28]: 12 ± 10 µg/mL (≈ 63.1 µM); MIC [21]: 16 µg/mL (≈ 84.1 µM); MIC [22]: 16 µg/mL (≈ 84.1 µM); MIC [23]: 4 µg/mL (≈ 21 µM); MIC [24]: 32 µg/mL (≈ 168 µM); IC50 [25]: 0.4 ± 0.05 µg/mL (≈ 2.1 µM); IC80 [25]: 0.8 ± 0.05 µg/mL (≈ 4.21 µM); MIC [26]: 16 µg/mL (≈ 84.1 µM); MIC [27]: 4 µg/mL (≈ 21 µM)
O=C(O)c1ccccc1O [SA, salicylic acid] | > 512 µg/mL | 597 ± 336 µg/mL (≈ 4320 µM) | > 512 µg/mL | > 512 µg/mL | > 512 µg/mL | > 512 µg/mL | > 512 µg/mL | 512 µg/mL (≈ 3710 µM) | > 512 µg/mL | > 512 µg/mL | > 512 µg/mL | > 512 µg/mL | > 512 µg/mL | > 512 µg/mL | 128 µg/mL (≈ 927 µM) | > 512 µg/mL | 512 µg/mL (≈ 3710 µM) | > 512 µg/mL | > 512 µg/mL | > 512 µg/mL | x¯ -CC ± SD: mean IC50 for intestinal cancer cells [17]: - (Not active (MIC/IC50/80 > 512 μg/mL, the value 1024 μg/mL was used for average calculation)); x¯ -CC ± SD: mean IC50 for intestinal cancer cells ([17]; listed as salicylic acid): ≥ 253.6 ± 208 µg/mL; MIC ([18]; […]): 256 µg/mL (≈ 1850 µM); MIC [20, 28]: 960 ± 212 µg/mL (≈ 6950 µM); MIC [21]: 512 µg/mL (≈ 3710 µM); MIC [22]: > 512 µg/mL; MIC [23]: > 512 µg/mL; MIC [24]: > 512 µg/mL; IC50 [25]: 73.2 ± 4.6 µg/mL (≈ 530 µM); IC80 [25]: 207 ± 69 µg/mL (≈ 1500 µM); MIC [26]: 512 µg/mL (≈ 3710 µM); MIC [27]: 128 µg/mL (≈ 927 µM)
